Laboratory results reported in the supplement of paper PMC5908809.

Columns and labels:
[1] = system: normal NK cells expanded with K562-aAPC; test: drug sensitivity score (DSS) (DSS units); higher = more sensitive; extreme values may be limits of the assay; conditions: 72 h; IL-2 2.5 ng/mL
Method: (§1)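 Drug sensitivity and resistance testing on K562-aAPC-expanded normal NK cells: 5 concentrations (10-fold steps over a 10,000-fold range), 72 h at 37 °C, viability by CellTiter-Glo normalised to DMSO and benzethonium chloride controls; DSS from the fitted curve.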

[2] = system: normal NK cells expanded with K562-aAPC; test: percent inhibition of viability; higher = more inhibition; conditions: 72 h, IL-2 2.5 ng/mL
Method: as §1

[3] = system: normal primary NK cells, pool 2 (3 donors) (IL-2 2.5 ng/mL); test: drug sensitivity score (DSS) (DSS units); higher = more sensitive; extreme values may be limits of the assay; conditions: 72 h
NKL (IL-2 2.5 ng/mL) [4] = test: as above; conditions: 72 h
NK-92 (IL-2 2.5 ng/mL) [5] = test: as above; conditions: 72 h
[6] = system: normal primary NK cells, pool 3 (3 donors) (IL-2 2.5 ng/mL); test: as above; conditions: 72 h
YT (IL-2 2.5 ng/mL) [7] = test: as above; conditions: 72 h
NK-YS (IL-2 2.5 ng/mL) [8] = test: as above; conditions: 72 h
[9] = system: normal primary NK cells, pool 1 (3 donors) (IL-2 2.5 ng/mL); test: as above; conditions: 72 h
IMC-1 (IL-2 20 ng/mL) [10] = test: as above; conditions: 72 h
DERL-7 (IL-2 2.5 ng/mL) [11] = test: as above; conditions: 72 h
[12] = system: normal primary NK cells, pool 1 (3 donors), resting (IL-2 0 ng/mL); test: as above; conditions: 72 h
KHYG-1 (IL-2 2.5 ng/mL) [13] = test: as above; conditions: 72 h
KAI3 (IL-2 2.5 ng/mL) [14] = test: as above; conditions: 72 h
SNK-6 (IL-2 2.5 ng/mL) [15] = test: as above; conditions: 72 h
[16] = system: normal primary NK cells, pool 2 (3 donors) (IL-2 2.5 ng/mL); test: percent inhibition of viability; higher = more inhibition; conditions: 72 h
NKL (IL-2 2.5 ng/mL) [17] = test: as above; conditions: 72 h
NK-92 (IL-2 2.5 ng/mL) [18] = test: as above; conditions: 72 h
[19] = system: normal primary NK cells, pool 3 (3 donors) (IL-2 2.5 ng/mL); test: as above; conditions: 72 h
YT (IL-2 2.5 ng/mL) [20] = test: as above; conditions: 72 h
NK-YS (IL-2 2.5 ng/mL) [21] = test: as above; conditions: 72 h
[22] = system: normal primary NK cells, pool 1 (3 donors) (IL-2 2.5 ng/mL); test: as above; conditions: 72 h
IMC-1 (IL-2 20 ng/mL) [23] = test: as above; conditions: 72 h
DERL-7 (IL-2 2.5 ng/mL) [24] = test: as above; conditions: 72 h
[25] = system: normal primary NK cells, pool 1 (3 donors), resting (IL-2 0 ng/mL); test: as above; conditions: 72 h
KHYG-1 (IL-2 2.5 ng/mL) [26] = test: as above; conditions: 72 h
KAI3 (IL-2 2.5 ng/mL) [27] = test: as above; conditions: 72 h
SNK-6 (IL-2 2.5 ng/mL) [28] = test: as above; conditions: 72 h

CC(C)C[C@H](NC(=O)[C@H](CCc1ccccc1)NC(=O)CN1CCOCC1)C(=O)N[C@@H](Cc1ccccc1)C(=O)N[C@@H](CC(C)C)C(=O)[C@@]1(C)CO1 [Carfilzomib] (max concentration tested 1000 nM)
Conditions | drug sensitivity score
DERL-7 (IL-2 2.5 ng/mL) [11] | 37.2
IMC-1 (IL-2 20 ng/mL) [10] | 30.3
KAI3 (IL-2 2.5 ng/mL) [14] | 34.8
KHYG-1 (IL-2 2.5 ng/mL) [13] | 30.9
NK-92 (IL-2 2.5 ng/mL) [5] | 33.1
NK-YS (IL-2 2.5 ng/mL) [8] | 30.9
NKL (IL-2 2.5 ng/mL) [4] | 29.9
SNK-6 (IL-2 2.5 ng/mL) [15] | 31.1
YT (IL-2 2.5 ng/mL) [7] | 30.6
[1] | 29.7
[3] | 33.4
[6] | 31.4
[9] | 34
[12] | 34.1

percent inhibition of viability [%]
Conditions | 0.1 nM | 1 nM | 10 nM | 100 nM | 1000 nM
DERL-7 (IL-2 2.5 ng/mL) [24] | 0.47 | 55.2 | 101 | 101 | 101
IMC-1 (IL-2 20 ng/mL) [23] | -4.55 | -1.82 | 100 | 101 | 101
KAI3 (IL-2 2.5 ng/mL) [27] | -4.59 | 28.8 | 101 | 105 | 107
KHYG-1 (IL-2 2.5 ng/mL) [26] | -8.88 | 2.3 | 101 | 105 | 105
NK-92 (IL-2 2.5 ng/mL) [18] | 1.15 | 15.4 | 101 | 106 | 106
NK-YS (IL-2 2.5 ng/mL) [21] | -4.19 | 3.04 | 101 | 104 | 105
NKL (IL-2 2.5 ng/mL) [17] | -2.93 | -11 | 102 | 106 | 108
SNK-6 (IL-2 2.5 ng/mL) [28] | -4.32 | 5.11 | 99.5 | 101 | 101
YT (IL-2 2.5 ng/mL) [20] | -5.39 | 1.26 | 100 | 105 | 105
[2] | -5.98 | -4.15 | 96.8 | 101 | 101
[16] | -2.72 | 22.8 | 97.1 | 99.5 | 99.7
[19] | -8.33 | 11.5 | 94.8 | 100 | 101
[22] | -1.09 | 26.1 | 97.9 | 99.6 | 99.8
[25] | -8.37 | 33.8 | 94 | 98.4 | 98.3

CNc1nc(-c2ccc3c(N)n[nH]c3c2)cc(N2C[C@@H](C(=O)NC3CCCCC3)CC[C@H]2C)n1 (max concentration tested 10000 nM)
Conditions | drug sensitivity score
DERL-7 (IL-2 2.5 ng/mL) [11] | 13.6
IMC-1 (IL-2 20 ng/mL) [10] | 0
KAI3 (IL-2 2.5 ng/mL) [14] | 2.49
KHYG-1 (IL-2 2.5 ng/mL) [13] | 0
NK-92 (IL-2 2.5 ng/mL) [5] | 1.22
NK-YS (IL-2 2.5 ng/mL) [8] | 0.64
NKL (IL-2 2.5 ng/mL) [4] | 1.31
SNK-6 (IL-2 2.5 ng/mL) [15] | 0
YT (IL-2 2.5 ng/mL) [7] | 0
[1] | 5.66
[3] | 1.91
[6] | 2.05
[9] | 3.79
[12] | 2.84

percent inhibition of viability [%]
Conditions | 1 nM | 10 nM | 100 nM | 1000 nM | 10000 nM
DERL-7 (IL-2 2.5 ng/mL) [24] | -6.71 | 4.6 | 17.5 | 62.3 | 73.1
IMC-1 (IL-2 20 ng/mL) [23] | -3.83 | -6.62 | -4.53 | -20.3 | -19.2
KAI3 (IL-2 2.5 ng/mL) [27] | 5.2 | 2.8 | 14.8 | 12.4 | 22.3
KHYG-1 (IL-2 2.5 ng/mL) [26] | 2.18 | -0.82 | 1.06 | 6.54 | 6.11
NK-92 (IL-2 2.5 ng/mL) [18] | -8.7 | -9.38 | -10.8 | 12.7 | 15.9
NK-YS (IL-2 2.5 ng/mL) [21] | -0.39 | 1.82 | 1.37 | 11.8 | 12.3
NKL (IL-2 2.5 ng/mL) [17] | -8.02 | -17.1 | -8.23 | 7.46 | 19
SNK-6 (IL-2 2.5 ng/mL) [28] | -15.1 | -5.82 | -4.32 | -18.6 | -16.6
YT (IL-2 2.5 ng/mL) [20] | 0.91 | -0.65 | -0.96 | -0.24 | -1.61
[2] | -0.16 | 0.82 | 7.33 | 29 | 34.4
[16] | -9.37 | -17 | -3.8 | 12.4 | 20.9
[19] | -9.17 | -11.9 | -6.95 | 18.4 | 14.4
[22] | -8.1 | -7.19 | -3.29 | 25.5 | 14.9
[25] | -13.3 | -12.7 | -3.91 | 21.5 | 9.91
